In paper PMC3749181, “Rapid Identification of Antifungal Compounds against Exserohilum rostratum Using High Throughput Drug Repurposing Screens” (PLoS ONE, 2013):
Read-outs that look alike come from different tables or passages of the source.

Experiments:
SH-SY5Y cells = assay: SH-SY5Y cytotoxicity counter-screen (ATP content assay); format: cell-based, Human; settings: for SH-SY5Y % M. Res.: Inact. = no significant activity at 46 µM; for SH-SY5Y % Max. Resp.: Table 2, SH-SY5Y, inact. = no significant activity at 46 µM
Description: Human neuroblastoma SH-SY5Y cell line (Catalog No. CRL-2266) was purchased from ATCC (Manassas, VA). SH-SY5Y cell line was cultured in 175-cm^2 tissue culture flasks (Costar, Cambridge, MA) with 30 ml of growth medium at 37°C in a 5% CO2 humidified atmosphere. Growth medium was made with Dulbecco's Modified Eagle Medium: Nutrient Mixture F-12 with 10% fetal bovine serum (FBS). Growth medium was replaced every other day and cells were passed at 75% confluence.
(§1) The ATPLite assay kit, consisting of luciferase/luciferin and detergent, was used to quantitate cellular ATP levels as a marker for cell viability (Table 1). For assay development, hyphal fragments or conidia in PBS were plated in a seeding density of 3,750, 7,500 and 15,000 cellular particles/well with a final volume of 5 µl/well using the Multidrop-Combi dispenser in white 1536-well plates. Conidia or hyphae fragments were incubated for 24 h at 37°C in a 5% CO2 humidified atmosphere. ATPLite detection reagents were added at 4 µl/well. The assay plates were incubated at room temperature for 15 minutes before reading luminescence intensity on a ViewLux plate reader (Perkin Elmer, Waltham, MA). Conidia suspended in RPMI medium were inoculated at concentrations of 62.5, 125 and 250 conidia/well with a final volume of 5 µl/well in white 1536-well plates. The conidia assay was developed and optimized in the same way as the hyphal assay.
Two small known compound libraries including the LOPAC (1280 compounds) and approved drugs (4096 compounds) were screened in parallel using the above optimized assays for hyphae and conidia in 1536-well plates (Fig. 4). […] A mammalian SH-SY5Y cell line was used in parallel as a counter-screen with the same ATP content assay kit to assess the specificity of these compounds for E. rostratum.

[1] = tested on: E. rostratum hyphal fragments; assay: hyphal fragment fungicidal ATP content assay (PBS, 1536-well); format: cell-based, Exserohilum rostratum; settings: for Emax / IC50: Exserohilum rostratum; for Emax / Hyphae % Max. Resp.: 46 µM Amphotericin B = 100%; for IC50: read-out: Hyphae IC50
Description: (§2) Conidia and hyphae of E. rostratum were obtained as described by Richard et al., with the following modifications. Briefly, conidia were harvested from Potato Dextrose Agar (PDA) cultured media with 0.05% Tween 80, and the conidial suspension was filtered using a Cell Strainer (100 µm, BD Falcon REF 352340). After centrifugation at 700g for 10 min, the suspension was decanted and conidia were resuspended at 1×10^5 per ml in RPMI and counted in a hemocytometer. Hyphae were harvested from yeast extract peptone dextrose (YPD) culture media with 0.05% Tween 80. Hyphal fragments were sized by vortexing 15 sec twice with 0.4 mm glassbeads, and the hyphae suspension was filtered by cheese cloth twice. […] To normalize concentrations of hyphal fragments for batch to batch consistency, carbohydrate analysis was performed by a phenol-sulfuric acid method as previously described. The final stock concentration of hyphae was adjusted to 1.0 (OD490) per 100 µl.
as §1
(§3) The LOPAC library (Sigma-Aldrich) has been extensively used for HTS assay validations, [18]. The NIH Chemical Genomics Center Pharmaceutical (NPC) collection was constructed in-house through a combined effort of compound purchasing and custom synthesis and recently expanded to 4096 compounds. […] 2.5 µl/well PBS was dispensed into 1536-well plates using a Multidrop-Combi dispenser. Compound in DMSO solution was transferred in a volume of 23 nl/well using a NX-TR pintool station (WAKO Scientific Solutions, San Diego, CA). This additional PBS step for compound addition was designed to prevent the potential fungal contamination of compound libraries. The hyphal fragments in PBS were then added at 2.5 µl/well for a final seeding density of 15,000 hyphal fragments/well using the Multidrop-Combi dispenser. The final compound concentration was 46 µM in the primary screen. The assay plates were incubated for 24 h at 30°C before the detection of cellular viability with the ATP content assay. Screen of conidia was performed in a similar way except that PBS was replaced with RPMI medium and conidia were plated for a final seeding density of 250 conidia/well.
(§4) The primary screen data and curve fitting were analyzed using software developed internally at the NIH Chemical Genomics Center (NCGC). Total signals for cellular viability (100% cellular viability) were calculated from the wells with DMSO solvent and the complete cell killing (0% cellular viability) was calculated from 46 µM amphotericin B treated wells. […] All values were expressed as the mean +/− SD (n≥3).

E. rostratum conidia = assay: conidia growth inhibition ATP content assay (RPMI, 1536-well); format: cell-based, Exserohilum rostratum; settings: for IC50: 24 h, read-out: Conidia IC50
Description: as §2, §1, §3, §4

[2] = Table S1, 46 µM Amphotericin B = 100%
[3] = Table S1, Inact. = no significant activity in the primary screen, read-out: Hyphae % M. Res.
[4] = Table 2, inact. = no significant activity in the primary screen
[5] = Table 2, 24 h, inact. = no significant activity in the primary screen
[6] = Exserohilum rostratum, Table 2, inact. = no significant activity at the highest compound concentration (46 µM)
[7] = Exserohilum rostratum, Table 2, 46 µM Amphotericin B = 100%, inact. = no significant activity at 46 µM, read-out: Conidia % Max. Resp.
[8] = Table 2, inact. = no significant activity in the primary screen, read-out: Hyphae % Max. Resp.
[9] = Table S1, Inact. = no significant activity at the highest compound concentration (46 µM)
[10] = Exserohilum rostratum, Table S1, 46 µM Amphotericin B = 100%, Inact. = no significant activity at 46 µM, read-out: Conidia % M. Res.

SMILES | SH-SY5Y IC50 (SH-SY5Y cells) | SH-SY5Y % M. Res. (SH-SY5Y cells; [2]) | Emax [1, 3] [%] | IC50 ([1]; Table S1, Inact. = no significant activity in the primary screen) [nM] | Conidia IC50 (E. rostratum conidia) | Conidia % M. Res. (E. rostratum conidia; Table S1, 46 µM Amphotericin B = 100%, Inact. = no significant activity at 46 µM) | SH-SY5Y % Max. Resp. (SH-SY5Y cells; 46 µM Amphotericin B = 100%) | SH-SY5Y % Max. Resp. (SH-SY5Y cells) | Hyphae % Max. Resp. [1, 4] | Hyphae IC50 [1, 5] | IC50 (E. rostratum conidia; [6]) [nM] | Emax (E. rostratum conidia; [7]) [%] | Emax [1, 8] [%] | IC50 [1, 5] [nM] | IC50 (E. rostratum conidia; Exserohilum rostratum) [nM] | Emax (E. rostratum conidia; Exserohilum rostratum, read-out: Conidia % Max. Resp.) [%] | Conidia % Max. Resp. (E. rostratum conidia; Table 2, 46 µM Amphotericin B = 100%, inact. = no significant activity at 46 µM) [%] | IC50 (E. rostratum conidia; Table 2, inact. = no significant activity at the highest compound concentration (46 µM)) [nM] | SH-SY5Y IC50 (SH-SY5Y cells; [9]) | Emax (E. rostratum conidia; [10]) [%]
Clc1ccc(C2(Cn3cncn3)OCCO2)c(Cl)c1 [Azaconazole] | Inact. | Inact. | 64 | 46900 | Inact. | Inact. |  |  |  |  |  |  |  |  |  |  |  |  |  | 
CC(C)(C)c1cc(C=C(C#N)C#N)cc(C(C)(C)C)c1O [Tyrphostin A9] |  |  |  |  |  |  | 61% | 18.6% | inact. | inact. | 1980 | 100 |  |  |  |  |  |  |  | 
C=CCOC(Cn1ccnc1)c1ccc(Cl)cc1Cl (centres unmarked) [Enilconazole] |  |  |  |  |  |  | inact. | inact. |  |  | 1720 | 102 | 73 | 312 |  |  |  |  |  | 
Oc1c(I)cc(Cl)c2cccnc12 [Clioquinol] |  |  |  |  |  |  | 60% | 37.2% | inact. | inact. | 975 | 103 |  |  |  |  |  |  |  | 
Oc1c(Cl)cc(Cl)c(Cl)c1Cc1c(O)c(Cl)cc(Cl)c1Cl [Hexachlorophene] |  |  |  |  |  |  | inact. | inact. | inact. | inact. |  |  |  |  | 3970 | 109 |  |  |  | 
O=C(Nc1ccc(Br)cc1)c1cc(Br)cc(Br)c1O [Tribromosalan] |  |  |  |  |  |  | inact. | inact. | inact. | inact. |  |  |  |  |  |  | 99 | 1930 |  | 
CC(=O)N1CCN(c2ccc(OCC3COC(Cn4ccnc4)(c4ccc(Cl)cc4Cl)O3)cc2)CC1 (centres unmarked) [Ketoconazole] |  | Inact. | 74 |  |  |  | inact. | inact. |  |  | 3470 | 101 | 74 | 2380 |  |  |  |  | Inact. | 101
CC(C)N1CCN(c2ccc(OCC3COC(Cn4cncn4)(c4ccc(Cl)cc4Cl)O3)cc2)CC1 (centres unmarked) [Terconazole] |  | Inact. | 100 |  |  |  | inact. | inact. |  |  | 9060 | 101 | 100 | 6120 |  |  |  |  | Inact. | 101
